Reference: patent US11214803B2, “Modulators of YAP1 expression” (Ionis Pharmaceuticals, Inc., priority 2019, dated 2022)
pIC50: −log10 of the molar value. Strand notation (5' to 3'): a small letter for the sugar, then the base; units joined by * are phosphorothioate-linked, units joined directly phosphodiester-linked; [ ] holds rarer units or linkages, { } end groups; capitals alone tell only the bases. k = constrained ethyl (cEt); [5mC] = 5-methylcytosine; d = 2'-deoxy (DNA)

Assays:
[1] = Tolerability in Balb/c mice, plasma chemistry markers (Example 12); assay type: in vivo; conditions: 50 mg/kg subcutaneously twice a week for four weeks
Experimental: Balb/c mice were treated with modified oligonucleotides selected from studies described above and evaluated for changes in the levels of various plasma chemistry markers.
(§1) Groups of male Balb/c mice at 6-7 weeks of age (obtained from Taconic) were injected subcutaneously twice a week for four weeks (for a total of 8 treatments) with 50 mg/kg of modified oligonucleotides. One group of male Balb/c mice was injected with PBS. Mice were euthanized on day 26 post start of treatment (24 hours following the final administration).

[2] = Tolerability in Balb/c mice, body and organ weights (Example 12); assay type: in vivo; conditions: male Balb/c mice, 50 mg/kg s.c. twice a week for four weeks (8 treatments), end of study (day 26)
Experimental: as §1
Body weights of Balb/c mice were measured at the end of the study, and the average body weight for each group is presented in the table below. Modified oligonucleotides that caused any changes in organ weights outside the expected range for modified oligonucleotides were excluded from further studies.

Yap1 mRNA [3] = test: Dose-dependent inhibition of human Yap1 in A-431 cells (Example 7, 10,000 cells per well, RTS36584); assay type: cell-based; conditions: free uptake
In short: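 Yap1 mRNA was expressed as percent of untreated control after normalization to total RNA (RIBOGREEN), and IC50 was derived by log/linear linear regression. The read-out used primer-probe set RTS36584 roughly 48 hours after free-uptake dosing of oligonucleotides into A-431 cells (10,000 cells/well).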

Yap1 mRNA [4] = test: Dose-dependent inhibition of human Yap1 in SNU-449 cells (Example 9, RTS36584); assay type: cell-based; conditions: free uptake; for % UTC (Yap1 mRNA): approximately 48 hours
In short: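 Read-out was Yap1 mRNA (primer-probe RTS36584) normalised to total RNA by RIBOGREEN, given as % of untreated cells, with IC50 fitted by linear regression of log/linear data. Oligonucleotides were dosed by free uptake to SNU-449 cells, 10,000/well, for ~48 h.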

[5] = Table 59, 15.6 nM, A-431 cells 10,000 cells per well, 48 hours
[6] = Table 59, 62.5 nM, A-431 cells 10,000 cells per well, 48 hours
[7] = Table 59, 4000.00 nM, A-431 cells 10,000 cells per well, 48 hours
[8] = Table 59, A-431 cells 10,000 cells per well
[9] = Table 61, 15.6 nM, A-431 cells 10,000 cells per well, 48 hours
[10] = Table 61, 62.5 nM, A-431 cells 10,000 cells per well, 48 hours
[11] = Table 61, 4000.00 nM, A-431 cells 10,000 cells per well, 48 hours
[12] = Table 61, A-431 cells 10,000 cells per well
[13] = 15.6 nM, A-431 cells, 10,000 cells per well, approximately 48 hours
[14] = 62.5 nM, A-431 cells, 10,000 cells per well, approximately 48 hours
[15] = 4000.00 nM, A-431 cells, 10,000 cells per well, approximately 48 hours
[16] = A-431 cells, approximately 48 hours, linear regression on log/linear plot
[17] = Table 56, 15.6 nM, A-431 cells 10,000 cells per well, 48 hours
[18] = Table 56, 62.5 nM, A-431 cells 10,000 cells per well, 48 hours
[19] = Table 56, 4000.00 nM, A-431 cells 10,000 cells per well, 48 hours
[20] = Table 56, A-431 cells 10,000 cells per well

| Substance | ALT [1] | AST [1] | BUN [1] | TBIL [1] | Kidney weight [2] | Liver weight [2] | Spleen weight [2] | body weight [2] | further results |
| --- | --- | --- | --- | --- | --- | --- | --- | --- | --- |
| 958498 (kG*kA*kG*dT*dA*dT*dG*dT*dG*dG*d[5mC]*dA*dA*kT*kA*kA; antisense) [compound 958498] | 1441 U/L | 3197 U/L | 12 mg/dL | 0.74 mg/dL | 0.45 g | 1.51 g | 0.19 g | 20 g | Yap1 mRNA, % UTC (Yap1 mRNA [3]; [5]): 70 % UTC; Yap1 mRNA, % UTC (Yap1 mRNA [3]; [6]): 21 % UTC; Yap1 mRNA, % UTC (Yap1 mRNA [3]; [7]): 2 % UTC; pIC50 (Yap1 mRNA [3]; [8]): 7.70 |
| 958729 (kG*kT*k[5mC]*dA*dG*dT*dT*dA*dT*d[5mC]*d[5mC]*dT*dA*kT*k[5mC]*kT; antisense) [compound 958729] | 4368 U/L | 4503 U/L | 30 mg/dL | 2.15 mg/dL | 0.24 g | 1.32 g | 0.05 g | 15 g | Yap1 mRNA, % UTC (Yap1 mRNA [3]; [9]): 73 % UTC; Yap1 mRNA, % UTC (Yap1 mRNA [3]; [10]): 44 % UTC; Yap1 mRNA, % UTC (Yap1 mRNA [3]; [11]): 4 % UTC; pIC50 (Yap1 mRNA [3]; [12]): 7.30 |
| 958590 (kA*kG*kG*dT*dA*dT*dA*dA*d[5mC]*dT*dG*dG*dG*k[5mC]*kA*kA) [compound 958590] | 374 U/L | 360 U/L | 25 mg/dL | 0.16 mg/dL | 0.40 g | 1.76 g | 0.13 g | 25 g | % UTC (Yap1 mRNA) (Yap1 mRNA [4]; 31.3 nM): 69 % UTC; % UTC (Yap1 mRNA) (Yap1 mRNA [4]; 125.0 nM): 52 % UTC; % UTC (Yap1 mRNA) (Yap1 mRNA [4]; 500.0 nM): 29 % UTC; % UTC (Yap1 mRNA) (Yap1 mRNA [4]; 2000.00 nM): 12 % UTC; pIC50 (Yap1 mRNA [4]; linear regression on a log/linear plot): 7.00; Yap1 mRNA, % UTC (Yap1 mRNA [3]; [13]): 71 % UTC; Yap1 mRNA, % UTC (Yap1 mRNA [3]; [14]): 33 % UTC; Yap1 mRNA, % UTC (Yap1 mRNA [3]; [15]): 4 % UTC; pIC50 (Yap1 mRNA [3]; [16]): 7.52 |
| 958509 (kA*kT*kG*dT*dT*dA*dT*dG*dT*dT*dT*dG*dG*kG*kT*kG; antisense) [compound 958509] | 1483 U/L | 1627 U/L | 26 mg/dL | 0.31 mg/dL | 0.27 g | 1.50 g | 0.13 g | 20 g | Yap1 mRNA, % UTC (Yap1 mRNA [3]; [9]): 66 % UTC; Yap1 mRNA, % UTC (Yap1 mRNA [3]; [10]): 37 % UTC; Yap1 mRNA, % UTC (Yap1 mRNA [3]; [11]): 7 % UTC; pIC50 (Yap1 mRNA [3]; [12]): 7.52 |
| 958554 (kA*kA*k[5mC]*d[5mC]*dA*dT*dT*dA*dT*dT*dA*d[5mC]*dT*k[5mC]*k[5mC]*kT; antisense) [compound 958554] | 583 U/L | 1051 U/L | 17 mg/dL | 0.28 mg/dL | 0.28 g | 1.05 g | 0.15 g | 22 g | Yap1 mRNA, % UTC (Yap1 mRNA [3]; Table 60, 15.6 nM, A-431 cells 10,000 cells per well, 48 hours): 70 % UTC; Yap1 mRNA, % UTC (Yap1 mRNA [3]; Table 60, 62.5 nM, A-431 cells 10,000 cells per well, 48 hours): 34 % UTC; Yap1 mRNA, % UTC (Yap1 mRNA [3]; Table 60, 4000.00 nM, A-431 cells 10,000 cells per well, 48 hours): 4 % UTC; pIC50 (Yap1 mRNA [3]; Table 60, A-431 cells 10,000 cells per well): 7.52 |
| 958721 (kG*kT*kA*dG*dT*dA*dT*dA*dA*dT*dG*dA*dG*kT*kT*kA; antisense) [compound 958721] | 57 U/L | 114 U/L | 28 mg/dL | 0.17 mg/dL | 0.33 g | 1.45 g | 0.12 g | 24 g | Yap1 mRNA, % UTC (Yap1 mRNA [3]; [17]): 72 % UTC; Yap1 mRNA, % UTC (Yap1 mRNA [3]; [18]): 32 % UTC; Yap1 mRNA, % UTC (Yap1 mRNA [3]; [19]): 3 % UTC; pIC50 (Yap1 mRNA [3]; [20]): 7.52 |
| 958725 (kG*kT*k[5mC]*dA*dG*dT*dT*dA*dT*d[5mC]*d[5mC]*dT*dA*kT*k[5mC]*k[5mC]; antisense) [compound 958725] | 3758 U/L | 3758 U/L | 31 mg/dL | 0.91 mg/dL | 0.21 g | 1.23 g | 0.04 g | 15 g | Yap1 mRNA, % UTC (Yap1 mRNA [3]; [13]): 65 % UTC; Yap1 mRNA, % UTC (Yap1 mRNA [3]; [14]): 36 % UTC; Yap1 mRNA, % UTC (Yap1 mRNA [3]; [15]): 1 % UTC; pIC50 (Yap1 mRNA [3]; [16]): 7.52 |
| 958603 (kT*kG*kG*dT*dA*dT*dG*dA*dA*dT*dT*d[5mC]*dT*kG*kA*kA; antisense) [compound 958603] | 1103 U/L | 927 U/L | 27 mg/dL | 0.35 mg/dL | 0.36 g | 1.80 g | 0.20 g | 21 g | Yap1 mRNA, % UTC (Yap1 mRNA [3]; [5]): 70 % UTC; Yap1 mRNA, % UTC (Yap1 mRNA [3]; [6]): 27 % UTC; Yap1 mRNA, % UTC (Yap1 mRNA [3]; [7]): 4 % UTC; pIC50 (Yap1 mRNA [3]; [8]): 7.52 |
| 958736 (kG*kT*kG*dA*dT*dA*dT*dG*dG*dA*dT*dT*d[5mC]*kT*kG*kT; antisense) [compound 958736] | 2439 U/L | 1450 U/L | 20 mg/dL | 0.31 mg/dL | 0.39 g | 1.95 g | 0.18 g | 24 g | Yap1 mRNA, % UTC (Yap1 mRNA [3]; [17]): 83 % UTC; Yap1 mRNA, % UTC (Yap1 mRNA [3]; [18]): 38 % UTC; Yap1 mRNA, % UTC (Yap1 mRNA [3]; [19]): 7 % UTC; pIC50 (Yap1 mRNA [3]; [20]): 7.22 |
| 958540 (kA*kT*kT*d[5mC]*dT*dA*dT*d[5mC]*d[5mC]*dA*dG*dG*dG*kT*k[5mC]*kA; antisense) [compound 958540] | 4127 U/L | 3940 U/L | 25 mg/dL | 0.44 mg/dL | 0.33 g | 1.53 g | 0.09 g | 19 g | Yap1 mRNA, % UTC (Yap1 mRNA [3]; [13]): 62 % UTC; Yap1 mRNA, % UTC (Yap1 mRNA [3]; [14]): 28 % UTC; Yap1 mRNA, % UTC (Yap1 mRNA [3]; [15]): 8 % UTC; pIC50 (Yap1 mRNA [3]; [16]): 7.70 |
| 958454 (antisense kG*kG*kA*dA*dT*dG*dA*dG*d[5mC]*dT*d[5mC]*dG*dA*kA*k[5mC]*kA) [compound 958454] | 1183 U/L | 2162 U/L | 45 mg/dL | 6.53 mg/dL | 0.25 g | 0.68 g | 0.03 g | 14 g | Yap1 mRNA, % UTC (Yap1 mRNA [3]; [9]): 72 % UTC; Yap1 mRNA, % UTC (Yap1 mRNA [3]; [10]): 40 % UTC; Yap1 mRNA, % UTC (Yap1 mRNA [3]; [11]): 4 % UTC; pIC50 (Yap1 mRNA [3]; [12]): 7.40 |
| 958553 (k[5mC]*k[5mC]*kA*dT*dT*dA*dT*dT*dA*d[5mC]*dT*d[5mC]*d[5mC]*kT*kG*kT; antisense) [compound 958553] | 174 U/L | 227 U/L | 29 mg/dL | 0.20 mg/dL | 0.29 g | 1.01 g | 0.11 g | 21 g | Yap1 mRNA, % UTC (Yap1 mRNA [3]; [5]): 68 % UTC; Yap1 mRNA, % UTC (Yap1 mRNA [3]; [6]): 23 % UTC; Yap1 mRNA, % UTC (Yap1 mRNA [3]; [7]): 5 % UTC; pIC50 (Yap1 mRNA [3]; [8]): 7.52 |
| 958375 (antisense kA*kA*kA*dG*d[5mC]*d[5mC]*dT*dT*dA*dG*dA*dG*dT*k[5mC]*kA*kA) [compound 958375] | 2736 U/L | 3013 U/L | 22 mg/dL | 0.43 mg/dL | 0.39 g | 2.00 g | 0.12 g | 23 g | Yap1 mRNA, % UTC (Yap1 mRNA [3]; [17]): 74 % UTC; Yap1 mRNA, % UTC (Yap1 mRNA [3]; [18]): 35 % UTC; Yap1 mRNA, % UTC (Yap1 mRNA [3]; [19]): 5 % UTC; pIC50 (Yap1 mRNA [3]; [20]): 7.40 |
